Legend:
[1] = Determination of pKa of formulated lipids (TNS fluorescence assay in lipid nanoparticles); format: physicochemical
Protocol: As described elsewhere, the pKa of formulated cationic lipids is correlated with the effectiveness of LNPs for delivery of nucleic acids (see Jayaraman et al, Angewandte Chemie, International Edition (2012), 51(34), 8529-8533; Semple et al, Nature Biotechnology 28, 172-176 (2010)). The preferred range of pKa is ˜5 to ˜7. […] Lipid nanoparticles comprising cationic lipid/DSPC/cholesterol/PEG-lipid (50/10/38.5/1.5 mol %) in PBS at a concentration of 0.4 mM total lipid are prepared using the in-line process as described in Example 1. TNS is prepared as a 100 μM stock solution in distilled water. Vesicles are diluted to 24 μM lipid in 2 mL of buffered solutions containing, 10 mM HEPES, 10 mM MES, 10 mM ammonium acetate, 130 mM NaCl, where the pH ranged from 2.5 to 11. An aliquot of the TNS solution is added to give a final concentration of 1 μM and following vortex mixing fluorescence intensity is measured at room temperature in a SLM Aminco Series 2 Luminescence Spectrophotometer using excitation and emission wavelengths of 321 nm and 445 nm. A sigmoidal best fit analysis is applied to the fluorescence data and the pKa was measured as the pH giving rise to half-maximal fluorescence intensity.

[2] = tested on: luciferase expression in the liver; test: In vivo luciferase mRNA expression rodent model (lipid nanoparticle formulations, liver luciferase); design: species or system mice; details: LNP with FLuc mRNA, PEG-DMA; 0.5 mg mRNA/kg, tail vein injection, liver 4 hours after administration
Protocol: Lipid nanoparticles are prepared and tested according to the general procedures described in PCT Pub. Nos. WO 2015/199952 and WO 2017/004143, the full disclosures of which are incorporated herein by reference. Briefly, cationic lipid, DSPC, cholesterol and PEG-lipid are solubilized in ethanol at a molar ratio of about 50:10:38.5:1.5 or about 47.5:10:40.8:1.7. Lipid nanoparticles (LNP) are prepared at a total lipid to mRNA weight ratio of approximately 10:1 to 30:1. The mRNA is diluted to 0.2 mg/mL in 10 to 50 mM citrate or acetate buffer, pH 4. Syringe pumps are used to mix the ethanolic lipid solution with the mRNA aqueous solution at a ratio of about 1:5 to 1:3 (vol/vol) with total flow rates above 15 mL/min. The ethanol is then removed and the external buffer replaced with PBS by dialysis. Finally, the lipid nanoparticles are filtered through a 0.2 µm pore sterile filter. Lipid nanoparticle particle size is approximately 55-95 nm diameter, and in some instances approximately 70-90 nm diameter as determined by quasi-elastic light scattering using a Malvern Zetasizer Nano ZS (Malvern, UK).
Studies are performed in 6-8 week old female C57BL/6 mice (Charles River) or 8-10 week old CD-1 (Harlan) mice (Charles River) according to guidelines established by an institutional animal care committee (ACC) and the Canadian Council on Animal Care (CCAC). Varying doses of mRNA-lipid nanoparticle are systemically administered by tail vein injection and animals euthanized at a specific time point (e.g., 4 hours) post-administration. Liver and spleen are collected in pre-weighed tubes, weights determined, immediately snap frozen in liquid nitrogen and stored at −80° C. until processing for analysis.
For liver, approximately 50 mg is dissected for analyses in a 2 mL FastPrep tubes (MP Biomedicals, Solon OH). ¼″ ceramic sphere (MP Biomedicals) is added to each tube and 500 μL of Glo Lysis Buffer—GLB (Promega, Madison WI) equilibrated to room temperature is added to liver tissue. Liver tissues are homogenized with the FastPrep24 instrument (MP Biomedicals) at 2×6.0 m/s for 15 seconds. Homogenate is incubated at room temperature for 5 minutes prior to a 1:4 dilution in GLB and assessed using SteadyGlo Luciferase assay system (Promega). Specifically, 50 μL of diluted tissue homogenate is reacted with 50 μL of SteadyGlo substrate, shaken for 10 seconds followed by 5 minute incubation and then quantitated using a CentroXS^3 LB 960 luminometer (Berthold Technologies, Germany). The amount of protein assayed is determined by using the BCA protein assay kit (Pierce, Rockford IL). Relative luminescence units (RLU) are then normalized to total ug protein assayed. To convert RLU to ng luciferase a standard curve is generated with QuantiLum Recombinant Luciferase (Promega). […]

[3] = cationic lipid formulated in LNP (cationic lipid/DSPC/cholesterol/PEG-lipid 50/10/38.5/1.5 mol %), TNS fluorescence, pH giving half-maximal fluorescence, Table 2
[4] = formulated cationic lipid in LNP, TNS assay, Table 4

CCCCCCCCC(CCCCCC)CN(CC(CCCCCC)CCCCCCCC)C(=O)CCCCCN(C)C (stereo not shown) [Compound I-2]
pKa [1, 3]: 7.42

CCCCCCCCC(CCCCCC)CN(CCCCCCCCN(C)C)CC(CCCCCC)CCCCCCCC (stereo not shown) [Compound I-9]
Liver Luc @ 0.5 mg/kg (ng luc/g liver) [2]: 341 ± 126 ng luc/g liver | pKa [1, 4]: 5.85

CCCCCCCCC(CCCCCC)CN(CC(CCCCCC)CCCCCCCC)C(=O)CCCCN(C)C (stereo not shown) [Compound I-1]
Liver Luc @ 0.5 mg/kg (ng luc/g liver) [2]: 206 ± 141 ng luc/g liver | pKa [1, 3]: 6.68

CCCCCCCCC(CCCCCC)CN(CC(CCCCCC)CCCCCCCC)C(=O)CCCCCCCCN(C)C (stereo not shown) [Compound I-6]
pKa [1, 3]: 7.15

CCCCCCCCC(CCCCCC)CN(CC(CCCCCC)CCCCCCCC)C(=O)CCCCNC(C)C (stereo not shown) [Compound I-4]
pKa [1, 3]: 8.15

CCCCCCCCC(CCCCCC)CN(CCCCCCCCCN(C)C)CC(CCCCCC)CCCCCCCC (stereo not shown) [Compound I-8]
Liver Luc @ 0.5 mg/kg (ng luc/g liver) [2]: 1761 ± 598 ng luc/g liver | pKa [1, 4]: 5.96

CCCCCCCCC(CCCCCC)CN(CC(CCCCCC)CCCCCCCC)C(=O)CCCCN(CCO)CCO (stereo not shown) [Compound I-3]
pKa [1, 3]: 6.49

CCCCCCCCC(CCCCCC)CN(CC(CCCCCC)CCCCCCCC)C(=O)CCN(C)C (stereo not shown) [Compound I-5]
Liver Luc @ 0.5 mg/kg (ng luc/g liver) [2]: 1417 ± 390 ng luc/g liver | pKa [1, 3]: 6.25

CCCCCCCCC(CCCCCC)CN(CC(CCCCCC)CCCCCCCC)C(=O)CCCCCCCN(C)C (stereo not shown) [Compound I-7]
pKa [1, 3]: 7.23
